Entries after “also recorded” stand apart in the source; their conditions may differ.
How the values were obtained:
Format in all cases: cell-based
[1] = tested on: transglutaminase-1 promoter (TG-1 Luc) in KJD-1/SV40 cells; assay: TG-1 Luc reporter assay in KJD-1/SV40 squamous cell carcinoma cells; conditions: proliferating KJD-1/SV40 cells; TPA 50 ng/ml for 48 hours where used; FIG. 6
Experimental: (§1) Human epidermal keratinocytes (HEKs) were isolated and cultured from neonatal foreskins as described (1). The SCC cell line, KJD-1/SV40, were grown in culture as previously reported (2). Growth arrest and differentiation was induced by maintaining confluent cells in culture over 48 hours or by treatment with the protein kinase C (PKC) activator, 12-Otetradecanoyl-phorbol-13-acetate (TPA, 50 ng/ml for 48 hours). Both these treatment regimes induce robust and reproducible differentiation in HEKs but not in SCC cell lines (2, 41-43).
(§2) The human cdc2 promoter construct driving expression of a CAT reporter gene (cdc2-CAT) has been previously described (6). The 2.9kb transglutaminase type 1 promoter linked to a firefly luciferase gene (TG-1 Luc), keratin 10 reporter (K10-Luc), β actin-CAT reporter gene and β actin-luciferase reporter gene have also been previously described (2, 6, 41, 44, 45). β actin-CAT or β actin-Luc reporters were used to normalize for transfection efficiency. The CMV-E2F1 construct was a kind gift from Dr Kristian Helin (16). The CMV-E2F 2-5 constructs were generous gifts from Dr David Livingston (46). The mutant E2F1 constructs, 132E2F1 and 409E2F1, were kindly provided by Dr Joseph Nevins (47). The E2F1 dominant-negative (E2Fd/n) construct codes for amino acids 116-235, spanning for the DNA binding domain and heterodimerisation domain (2). […]

[2] = tested on: keratin 10 promoter linked to a firefly luciferase gene (K10-Luc); assay: K10-Luc reporter assay in transfected human epidermal keratinocytes (HEKs)
Experimental: as §1
(§3) The human cdc2 promoter construct driving expression of a CAT reporter gene (cdc2-CAT) has been previously described (6). The 2.9kb transglutaminase type 1 promoter linked to a firefly luciferase gene (TG-1 Luc), keratin 10 reporter (K10-Luc), β actin-CAT reporter gene and β actin-luciferase reporter gene have also been previously described (2, 6, 41, 44, 45). β actin-CAT or β actin-Luc reporters were used to normalize for transfection efficiency. The CMV-E2F1 construct was a kind gift from Dr Kristian Helin (16). The CMV-E2F 2-5 constructs were generous gifts from Dr David Livingston (46). The mutant E2F1 constructs, 132E2F1 and 409E2F1, were kindly provided by Dr Joseph Nevins (47). The E2F1 dominant-negative (E2Fd/n) construct codes for amino acids 116-235, spanning for the DNA binding domain and heterodimerisation domain (2).
(§4) Transient transfections of cells were performed in 10 cm^2 well, when cells were either 50% or 100% confluent. Reporter activity was assayed 48 hours post-transfection. Transfection protocols for cultured HEKs using Lipofectamine™ (Invitrogen, Australia) and KJD-1/SV40 cells using Effectene (Qiagen, Australia) have been described previously (2). Transfections were performed in triplicate and repeated at least three times.
(§5) Chloramphenicol acetyltransferase assays (CAT) were performed using a CAT ELISA kit (Roche, Australia) as per manufacturer's instructions. The luciferase assay protocol has been previously reported (6, 41).

[3] = tested on: transglutaminase type 1 promoter linked to a firefly luciferase gene (TG-1 Luc); assay: TG-1 Luc reporter assay in transfected human epidermal keratinocytes (HEKs)
Experimental: as §1, §3, §4, §5

[4] = tested on: human cdc2 promoter (cdc2-CAT); assay: cdc2-CAT reporter assay in transfected human epidermal keratinocytes (HEKs); conditions: proliferating HEKs co-transfected with expression plasmid
Experimental: as §1, §2

[5] = cultured HEKs induced to differentiate by treatment with TPA (50 ng/ml for 48 hours), FIG. 1
[6] = differentiated (confluent or TPA-treated) HEKs co-transfected with expression plasmid, assayed 48 hours post-transfection

TG-1 Luc activity ([3]; proliferating HEKs transfected with E2Fd/n)	Compound	TG-1 Luc activity [1]	K10-Luc activity [2, 5]	TG-1 Luc activity [3, 5]	cdc2-CAT reporter activity (proliferation-specific marker) [4]	K10-Luc activity [2, 6]	TG-1 Luc activity [3, 6]
–	CCCCCCCCCCCCCC(=O)O[C@@H]1[C@@H](C)[C@@]2(O)[C@@H](C=C(CO)C[C@]3(O)C(=O)C(C)=C[C@@H]23)[C@@H]2C(C)(C)[C@]12OC(C)=O [TPA, 12-O-tetradecanoylphorbol-13-acetate, reference compound]	no induction	increased	increased	–	–	–
not sufficient to induce	E2Fd/n: E2F1 dominant-negative construct coding for amino acids 116-235, spanning the DNA binding domain and heterodimerisation domain	not altered	–	–	suppression	superinduces/derepresses	superinduce/derepress; also recorded: superinduces/derepresses
–	E2F1: E2F1 transcription factor overexpressed from the CMV-E2F1 expression plasmid	–	–	–	–	significantly suppressed	significantly suppressed; also recorded: suppresses
